{"source": "paper PMC11324666", "about": "“Two novel in vitro assays to screen chemicals for their capacity to inhibit thyroid hormone transmembrane transporter proteins OATP1C1 and OAT4” (Archives of Toxicology, 2024)", "key": {"OATP1C1 [1]": {"target": "T1, OATP1C1 (Homo sapiens, UniProt Q9NYB5)", "T1 construct": "host or cells: CHO-K1", "T1 sequence (Q9NYB5 1-712)": "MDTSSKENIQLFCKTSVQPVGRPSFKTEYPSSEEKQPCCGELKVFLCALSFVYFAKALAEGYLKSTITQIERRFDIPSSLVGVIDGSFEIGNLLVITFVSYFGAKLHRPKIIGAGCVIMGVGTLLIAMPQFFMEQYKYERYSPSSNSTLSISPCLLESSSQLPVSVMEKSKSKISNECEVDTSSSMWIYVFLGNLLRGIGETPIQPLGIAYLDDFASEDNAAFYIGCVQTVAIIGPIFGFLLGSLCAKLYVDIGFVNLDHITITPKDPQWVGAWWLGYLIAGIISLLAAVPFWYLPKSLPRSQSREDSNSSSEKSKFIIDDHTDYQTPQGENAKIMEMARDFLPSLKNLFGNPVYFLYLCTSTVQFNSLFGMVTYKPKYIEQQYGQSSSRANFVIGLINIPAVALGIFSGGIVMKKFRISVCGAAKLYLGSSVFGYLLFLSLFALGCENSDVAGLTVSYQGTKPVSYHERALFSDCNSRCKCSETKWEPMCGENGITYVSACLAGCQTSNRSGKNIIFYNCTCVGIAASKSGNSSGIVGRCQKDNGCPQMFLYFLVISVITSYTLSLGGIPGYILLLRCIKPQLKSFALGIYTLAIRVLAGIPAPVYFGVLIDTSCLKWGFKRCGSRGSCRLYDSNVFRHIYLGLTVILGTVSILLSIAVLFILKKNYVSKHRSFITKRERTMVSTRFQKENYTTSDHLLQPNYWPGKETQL", "assay": "CHO-K1 OATP1C1 TH uptake assay with 125I-T4 tracer", "assay_type": "cell-based", "experimental": "(§1) MDCK-OAT4 and MDCK-DEST cells were cultured in DMEM:F12 (L-glutamine, 15 mM HEPES) (Gibco) supplemented with (100 µg/mL penicillin + 100 µg/mL streptomycin), 10% fetal calf serum (Gibco) and 2 µg/mL blasticidin (Sigma). CHO-K1 OATP1C1 or WT cells were cultured in F12 nutrient mix (Gibco) supplemented with (100 µg/mL penicillin + 100 µg/mL streptomycin), 10% fetal calf serum (Gibco) and […] G418 (Sigma). All cell cultures were incubated at 37 °C with 5% CO2 saturation until 80% confluency. MDCK-OAT4 and MDCK-DEST cells were seeded in 96 wells plate at a density of 4 × 10^5 cells in 100 µL medium per well and incubated for 24 h before the start of the MDCK-OAT4 TH uptake assay. CHO-K1 OATP1C1 and WT cells were seeded in 96 wells plate at a density of 3 × 10^5 cells in 100 µL medium per well 72 h before the CHO-K1 OATP1C1 TH uptake assay. Medium from CHO-K1 OATP1C1 or WT assay plates was changed to serum-free F12 medium containing 5 mM sodium-butyrate 24 h before start of the CHO-K1 OATP1C1 TH uptake assay to increase transfected expression of SV-40 promotor plasmids.\n(§2) Subsequently 10 µL of a tenfold stock of test compound in uptake buffer (solvent concentration 1% v/v) was added to each well. […] Cells were exposed at 37 °C for 20 min (MDCK-OAT4) or 30 min (CHO-K1 OATP1C1), unless stated differently. After exposure, cells were immediately washed with ice-cold PBS supplemented with 0.1% bovine serum albumin (BSA). Subsequently, cells were lysed in 50 µL of 0.1 M NaOH under continuous shaking at room temperature. After 20 min, cell lysates were manually transferred into separate 5 mL polypropylene tubes. One tube was also prepared with 10 µL of the T4 tracer solution. Radioactivity was measured in a Wizard^2 gamma counter (Perkin Elmer).\n(§3) For the CHO-K1 OATP1C1 TH uptake assay total of 29 chemicals (Table 1) were selected for the EDC screening based on available literature data. […] The same chemicals were selected for the MDCK-OAT4 TH uptake assay, with the exception of BPF, VRP and TCS. […] The THTMT TH uptake assay was then performed as described earlier. […] A concentration of 100 µM ICG was used as a reference chemical for OATP1C1 and 100 µM LESI for OAT4. At least three independent experiments were performed for each chemical.\n(§4) Raw values were normalized to the total amount of radioactivity in the T4 tracer solution. These values were expressed as a percentage of total radioactivity added (or uptake percentage) and used for all further data analysis. Statistically significant differences between the T4 uptake of transfected and wild type cells, in the presence or absence of inhibitor, were determined by two-way ANOVA (α = 5%, two-sided). […] In brief, uptake values were normalized to the median response of the vehicle and positive controls for each plate. […] Statistical analysis were performed using GraphPad Prism version 8 for Windows (GraphPad Software, San Diego, California USA) and SAS 9.3 (SAS Institute, Cary NC)."}, "OAT4": {"target": "T2, OAT4 (Homo sapiens, UniProt Q9NSA0)", "T2 construct": "V5 (from pLenti6/V5-DEST); expressed in transfected cells; host or cells: MDCK-1 (lentiviral transduction, blasticidin selection)", "T2 sequence (Q9NSA0 1-550)": "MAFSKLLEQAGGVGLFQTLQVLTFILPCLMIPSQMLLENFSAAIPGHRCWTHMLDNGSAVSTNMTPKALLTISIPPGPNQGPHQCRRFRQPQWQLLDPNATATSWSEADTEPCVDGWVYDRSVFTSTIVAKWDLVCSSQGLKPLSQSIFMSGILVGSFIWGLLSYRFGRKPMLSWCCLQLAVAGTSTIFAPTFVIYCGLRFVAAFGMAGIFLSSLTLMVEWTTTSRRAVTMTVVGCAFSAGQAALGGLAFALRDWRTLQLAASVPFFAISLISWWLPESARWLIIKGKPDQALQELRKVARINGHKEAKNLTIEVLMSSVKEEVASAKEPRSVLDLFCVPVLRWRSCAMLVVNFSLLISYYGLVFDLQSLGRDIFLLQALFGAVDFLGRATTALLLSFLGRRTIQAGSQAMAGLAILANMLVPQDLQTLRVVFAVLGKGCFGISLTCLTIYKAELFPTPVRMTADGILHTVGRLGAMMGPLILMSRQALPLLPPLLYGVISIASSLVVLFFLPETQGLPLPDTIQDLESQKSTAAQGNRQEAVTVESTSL", "assay": "MDCK-OAT4 TH uptake assay with 125I-T4 tracer", "assay_type": "cell-based", "conditions": "10 nM T4, 20 min; for 125I-T4 uptake compared to the vehicle control (range finding): single concentration 10 or 100 µM, below 80% = positive hit; for T4 uptake inhibition BMC20 (M), [CI]: concentration that inhibits 125I-T4 uptake by 20%, brackets = 95% CI", "experimental": "Subsequently OAT4 in pENTR™/D-TOPO® Vector was shuffled into the pLenti6/V5-DEST vector (Thermo Fisher) using Gateway™ LR Clonase™ II Enzyme mix (Thermo Fisher) according to the manufacture’s protocol.\nTo generate an OAT4 stable cell line, MDCK-1 cells were plated in 12-well plates with full growth medium and transduced with fresh viral supernatants in the absence of antibiotics in medium. After 2 days, MDCK-1 cells transduced with OAT4 (MDCK-OAT4) or empty vector (MDCK-DEST) were selected in full growth medium supplemented with 2 µg/mL blasticidin and further maintained under blasticidin selection.\nas §1, §2\nas §3, with “chemical. Each individual experiment contained three technical replicates of each control and concentration tested.” for “chemical.”\nas §4"}, "CHO-K1 OATP1C1 cells": {"system": "CHO-K1 OATP1C1 cells", "conditions": "for cytotoxic effects: at concentrations of the uptake assay, Figure S1; for Cytotoxicity IC10: concentration that inhibits cell viability by 10%, CHO-K1 OATP1C1 cells, 30 min exposure", "experimental": "(§5) Cell viability was assessed through the quantitation of ATP present in cells using the commercially available CellTiter-Glo® luminescent cell viability assay and performed according to the manufacturer’s instruction (Promega, Leiden, the Netherlands). Briefly, cells were seeded as described earlier in opaque-walled clear-bottom 96 well plates. On the day of the experiment, each well was washed with 200 µL phosphate buffered saline (PBS) and exposed to 80 µL of uptake buffer, 10 µL of a tenfold stock of test compound solved in uptake buffer or control and 10 µL of T4 (final concentration 10 nM). 0.1% DMSO was used as a solvent control, while 10% DMSO was used as a positive control. After exposure for the indicated times similar to THTMT TH uptake assay, cells were immediately washed with ice-cold PBS + 0.1%BSA and exposed to 100 µL of the CellTiter-Glo® Reagent. Plates were then shaken on an orbital shaker for 2 min and left to incubate at room temperature for 10 min. Luminescence was measured on a BioTek Cytation 5 microplate reader. […] Each individual experiment was repeated at least twice and contained three technical replicates of each control and concentration tested.\nFigure S1. […] Blue dots indicate the plate medians from three or four independent experiments, all control and chemical concentrations were tested in triplicates per plate."}, "MDCK-OAT4 cells": {"system": "MDCK-OAT4 cells", "assay": "CellTiter-Glo luminescent cell viability assay in MDCK-OAT4 cells", "conditions": "concentration that inhibits cell viability by 10%; MDCK-OAT4 cells, 20 min exposure", "experimental": "as §5\nFigure S2. […] Blue dots indicate the plate medians from three or four independent experiments, all control and chemical concentrations were tested in triplicates per plate. The black line indicates the best-fit concentrations response curve, the dotted line the corresponding 95% confidence interval."}, "oatp1c1 [2]": {"system": "oatp1c1", "design": "method as in Westholm et al. (2009)", "conditions": "T4 1 nM; ref Westholm et al. (2009); read-out: IC50 of T4 transmembrane transport inhibition; cited from earlier work"}, "[3]": {"conditions": "concentration that inhibits 125I-T4 uptake by 20%, 10 nM T4, 30 min, brackets = 95% CI"}}, "note": "Like-named read-outs stand apart in the source and are kept apart here.", "data": [{"molecule": "NC(Cc1cc(I)c(Oc2cc(I)c(O)c(I)c2)c(I)c1)C(=O)O", "note": "(stereo not drawn) [T4, Thyroxine, reference compound]", "values": [{"measurement": "uptake of 125I-T4 with excess of unlabeled T4", "setting": "OATP1C1 [1]; 1 µM unlabeled T4", "value": "quenched the uptake"}]}, {"molecule": "O=S(=O)(c1ccc(O)cc1)c1ccc(O)cc1", "note": "[Bisphenol S, Bisphenol-S]", "values": [{"measurement": "125I-T4 uptake compared to the vehicle control (range finding)", "setting": "OAT4", "value": "≥ 80", "unit": "%"}]}, {"molecule": "CC(C)(c1ccc(O)cc1)c1ccc(O)cc1", "note": "[Bisphenol A, Bisphenol-A]", "values": [{"measurement": "T4 uptake inhibition BMC20 (M), [CI]", "setting": "OATP1C1 [1]; [3]", "value": "1.90E−05 [1.28E−05; 2.83E−05] M"}, {"measurement": "cytotoxic effects", "setting": "CHO-K1 OATP1C1 cells", "value": "confounded by cytotoxic effects"}, {"measurement": "Cytotoxicity IC10", "setting": "CHO-K1 OATP1C1 cells", "value": 4.34, "unit": "µM"}]}, {"molecule": "Oc1ccc(C2(c3ccc(O)cc3)CCCCC2)cc1", "note": "[Bisphenol Z, Bisphenol-Z]", "values": [{"measurement": "Cytotoxicity IC10", "setting": "CHO-K1 OATP1C1 cells", "value": "> 100", "unit": "µM"}]}, {"molecule": "O=C(O)CSc1nnc(Br)n1-c1ccc(C2CC2)c2ccccc12", "note": "[Lesinurad, reference compound]", "values": [{"measurement": "Cytotoxicity IC10", "setting": "MDCK-OAT4 cells", "value": "> 100", "unit": "µM"}, {"measurement": "T4 uptake inhibition BMC20 (M), [CI]", "setting": "OATP1C1 [1]; [3]", "value": "4.34E−07 [1.97E−07; 9.56E−07] M"}, {"measurement": "Cytotoxicity IC10", "setting": "CHO-K1 OATP1C1 cells", "value": "> 100", "unit": "µM"}]}, {"molecule": "Oc1cc(Cl)ccc1Oc1ccc(Cl)cc1Cl", "note": "[Triclosan]", "values": [{"measurement": "T4 uptake inhibition BMC20 (M), [CI]", "setting": "OATP1C1 [1]", "value": "2.30E−06 [1.38E−06; 3.83E−06] M"}, {"measurement": "cytotoxic effects", "setting": "CHO-K1 OATP1C1 cells", "value": "confounded by cytotoxic effects"}, {"measurement": "Cytotoxicity IC10", "setting": "CHO-K1 OATP1C1 cells", "value": 0.378, "unit": "µM"}]}, {"molecule": "β-Estradiol-3-sulfate [ß-Estrone-3-sulfate, reference compound]", "values": [{"measurement": "T4 uptake inhibition BMC20 (M), [CI]", "setting": "OAT4", "value": "1.55E−06 [5.32E−07; 4.51E−06] M"}, {"measurement": "125I-T4 uptake compared to the vehicle control (range finding)", "setting": "OAT4", "value": "below 80%"}]}, {"molecule": "O=C(O)Cc1ccccc1Nc1c(Cl)cccc1Cl", "note": "[Diclofenac, reference compound]", "values": [{"measurement": "IC50", "setting": "oatp1c1 [2]", "value": 4, "unit": "µM"}, {"measurement": "T4 uptake inhibition BMC20 (M), [CI]", "setting": "OAT4", "value": "3.22E−06 [6.39E−07; 1.62E−05] M"}]}, {"molecule": "[CH3][Hg][Cl]", "note": "[MeHg, Methyl mercury]", "values": [{"measurement": "125I-T4 uptake compared to the vehicle control (range finding)", "setting": "OATP1C1 [1]; single concentration 10 or 100 µM, 10 nM T4, 30 min, below 80% = positive hit", "value": "≥ 80", "unit": "%"}, {"measurement": "125I-T4 uptake compared to the vehicle control (range finding)", "setting": "OAT4", "value": "≥ 80", "unit": "%"}]}]}
